Results published in patent US20030187261A1, “Purine derivatives, process for their preparation and use thereof” (priority 2000, published 2003).
Like-named read-outs stand apart in the source and are kept apart here.

Key:
MPF activity = assay: M-phase promoting factor inhibition in metaphase-arrested Xenopus egg extracts; format: biochemical; conditions: 1.5 h after addition
Protocol: (§1) Metaphase-arrested Xenopus egg extracts were prepared as described previously by Blow “J. Cell Biol.” 1993, 122:993 and stored in liquid nitrogen. Demembranated Xenopus sperm nuclei were prepared as described by Blow & Laskey “Cell” 1986;47:577.
(§2) At concentrations of cdk inhibitors (see Table 6) ranging from 0.1-2 μM, chromosomes remained highly condensed and no nuclear envelope was visible. At 4-6 μM and higher concentrations, interphase nuclei appeared with partially decondensed chromatin and an intact nuclear envelope. […] For the inhibition effect to become detectable, the first 15-min incubation of the interphase extract is probably sufficient.

DNA synthesis = DNA synthesis in Xenopus egg extracts ([α-32P]dATP incorporation); format: biochemical; conditions: [α-32P]dATP incorporation after 3 h; read-out: Inhibition of DNA synthesis IC50
Protocol: as §1, §2

[1] = test system: T-lymphocyte leukemia Molt3 cell line; assay: cell growth of Molt3 cell line, flow cytometric cell count; format: cell-based, human; conditions: 96 hours of culture
Protocol: (§3) Cell lines: Human leukemic cell lines were obtained from the American Type Culture Collection (ATCC, Rockville, Md., USA). They were cultured in Iscove's Modified Dulbecco's Medium (IMDM) supplemented with 10% heat inactivated fetal calf serum (FCS), 200 U/ml penicillin, 200 μg/ml streptomycin and 1 μg/ml amphotericin B. Cells were cultured in a 5% CO2-95% air fully humidified incubator. For effects on clonogenic output, 1000 cells/well were plated in duplicate in methylcellulose (0.9%), supplemented with 20% FCS and cultured for 14 days.
(§4) Cells were plated at 10000 per well in 200 μl IMDM medium and incubated with 0-50 μM of the compounds of the invention (Table 5), by addition of the drugs directly to the culture medium and incubated at 37° C. for 96 hours. Absolute cell number was determined by addition of a known concentration of Fluoresbrite microspheres (FITC) (Polysciences, Inc.). The absolute number of cells per well was calculated as: {(total number of beads added per well)/(number of beads measured)}×(number of measured cells in the gate of interest). All analyses were performed with a FACScan (BD), using CELLQuest software (Becton Dickinson).
The response of the myeloid leukemia KG1 and T-lymphocyte leukemia Molt3 cell lines to the cytostatic effect of the novel compounds was determined using the above-mentioned standardized bead suspension that was used to determine the absolute cell number by flow cytometric (FCM) measurement. Cells were grown in the presence of increasing concentrations of the compounds of the invention.

[2] = test system: myeloid leukemia KG1 cell line; assay: cell growth of KG1 cell line, flow cytometric cell count; conditions: for IC50: read-out: KGI IC50; for cell number after 6 hours of exposure, wash and 7 days in drug-free medium: KG1, compared to control without novel compounds
Protocol: To determine reversibility of the effects of the new compounds, cells were plated at 10,000 per well and exposed to 0-50 μM of the composed, either continuously for 7 days (control) or only for 6 hours. In the latter case, cells were washed after 6 hours in phosphate-buffered-saline (PBS) (Life Technologies) and reseeded into drug-free medium for 7 days.

[3] = test system: PHA-stimulated lymphocytes (PBMC); assay: cell number of PHA-stimulated lymphocytes (PBMC), flow cytometry; format: cell-based, human; conditions: 96 hours, in the presence of IL-2; for CC50: Homo sapiens, Lymphocyte, read-out: Lymphocytes IC50
Protocol: Human peripheral blood mononuclear cells were isolated by density gradient (Ficoll-Hypaque) (LSM, ICN Biomedicals Inc.). PBMC were stimulated with 5 μg/ml phytohemaglutinin A (PHA) (Sigma) during 24-48 hours in IMDM supplemented with 10% FCS (IMDM/10% FCS) at 37° C. After washing off the PHA, PBMC were incubated with interleukin-2 (IL-2) (10 U/ml) (Genzyme).
as §4
The novel compounds were tested for cytotoxicity on PHA-stimulated lymphocytes (PBMC), as one of the normal counterparts of the cell lines. Cells were grown for 96 hours in the presence of IL-2 and different concentrations of the novel compounds and cell number was counted on the flow cytometer.

[4] = test system: adult bone marrow CD34+CD38- cells; assay: pre-CFU assay; format: cell-based, human; conditions: for IC50: 14 day liquid culture, total clonogenic output after secondary methylcellulose culture
Excerpt: […]. Cells with low-to-medium forward and low side scatter, highly positive green (CD34) fluorescence, and an orange (CD38) fluorescence signal lower than the mean fluorescence of cells labeled with an irrelevant isotype-matched control antibody+2 standard deviations were retained as CD34^+CD38^− cells and used in pre-CFU assays.
Pre-CFU assays were initiated by performing liquid cultures of CD34^+CD38^− cells in duplicate in 96-well flat-bottomed plates in IMDM/10% FCS, 1% bovine serum albumin (BSA), 100 U/ml IL-1, 200 U/ml IL-6, 30 U/ml IL-3 and 100 ng/ml stem cell factor (SCF). Pre-CFU cultures were initiated with 500 CD34^+CD38^− cells/well (200 μl). After 14 days of culture at 37° C. in 7.5% O2 and 5% CO2 in a fully humidified incubator, the number of cells in each well was counted. Subsequently, the cells were harvested, washed three times in IMDM/10% FCS, and plated in duplicate at 500 cells/well (1000 μl) in secondary methylcellulose CFU cultures as described for CFU assays.
Pre-CFU were cultured starting from adult bone marrow CD34^+CD38^− cells, that had been isolated using the FCM cell sorter. Novel compounds were added at different concentrations to the primary 14 day liquid culture. IC50 was calculated from dose-response curves from total clonogenic output after secondary methylcellulose culture (Table 5).

CDC2 = molecular target: T1, CDC2 (Homo sapiens, UniProt P06493); assay: p34cdc2 (CDC2) kinase inhibition assay, histone H1 substrate; format: biochemical; conditions: Table 5, CDC2 activity in cell free system
T1 construct: made in house; host or cells: Sf9 insect cells, baculovirus co-infection
T1 sequence (P06493 whole entry, species assumed): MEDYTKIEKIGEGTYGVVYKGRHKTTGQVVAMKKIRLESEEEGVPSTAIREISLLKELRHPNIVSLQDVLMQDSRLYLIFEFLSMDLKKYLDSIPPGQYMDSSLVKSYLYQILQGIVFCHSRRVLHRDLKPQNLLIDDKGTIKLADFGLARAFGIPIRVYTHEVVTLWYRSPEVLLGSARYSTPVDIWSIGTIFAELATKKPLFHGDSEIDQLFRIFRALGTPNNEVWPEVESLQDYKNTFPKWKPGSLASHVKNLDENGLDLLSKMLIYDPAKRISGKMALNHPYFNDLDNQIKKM
T1 sequence (P14635 whole entry partner, species assumed): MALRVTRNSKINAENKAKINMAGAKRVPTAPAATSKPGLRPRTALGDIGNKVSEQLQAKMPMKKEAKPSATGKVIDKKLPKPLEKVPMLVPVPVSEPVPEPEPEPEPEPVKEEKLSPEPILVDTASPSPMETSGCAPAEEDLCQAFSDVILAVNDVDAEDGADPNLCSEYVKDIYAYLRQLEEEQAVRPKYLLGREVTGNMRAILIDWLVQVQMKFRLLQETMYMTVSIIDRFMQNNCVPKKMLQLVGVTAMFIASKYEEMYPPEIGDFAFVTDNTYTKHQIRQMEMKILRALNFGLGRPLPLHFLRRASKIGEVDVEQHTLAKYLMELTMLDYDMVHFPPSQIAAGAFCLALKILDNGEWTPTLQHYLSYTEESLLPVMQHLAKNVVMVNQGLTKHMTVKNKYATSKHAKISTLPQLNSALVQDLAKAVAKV
Protocol: Cyclin-dependent kinases (p34^cdc2, p33^cdk2, p33^cdk4 and cyclins (cyclin B, E and DI) are produced in Sf9 insect cells coinfected with appropriate baculoviral constructs. The cells are harvested 68-72 hrs post infection in lysis buffer for 30 min on ice and the soluble fraction is recovered by centrifugation at 14.000 g for 10 min. The protein extract is stored at −80° C.
To carry out experiments on kinetics under linear conditions, the final point test system for kinase activity measurement is used. The kinase is added to the reaction mixture in such a way that linear activity is obtained with respect to the concentration of enzyme and with respect to time.
Inhibition of p33^cdk4 kinase is determined with Rb-GST (0.2 mg/ml) as the substrate. Kinase activity is determined at 30° C. in kinase buffer.
Tested compounds are usually dissolved to 100 mM solutions in DMSO, the final concentration of DMSO in reaction mixture never exceeds 1%. The controls contain suitable dilutions of DMSO. After 10 min, the addition of 3×SDS sample buffer stops the incubations. […] The measurement of kinase activity is done using digital image analysis. The kinase activity is expressed as a percentage of maximum activity, the apparent inhibition constants are determined by graphic analysis. Kinase buffer: 50 mM Hepes pH 7.4, 10 mM MgCl21 5 mM EGTA, 10 mM 2-glycerolphosphate,

KG1 = assay: clonogenic output of KG1 in methylcellulose; format: cell-based, human; conditions: 25 μM, 14 days
Protocol: as §3
Clonogenic output of KG1 was tested in methylcellulose with 25 μM of some of the novel compounds.

[5] = test system: CD34+ hematopoietic progenitors (HPC) from adult bone marrow; assay: myeloid colony-forming unit (CFU) assay; format: cell-based, human; conditions: for IC50: 14 days, methylcellulose, total colony output
KG1 cells = assay: apoptosis and cell cycle in KG1 cells (fluorescence microscopy, TUNEL); format: cell-based, human
Protocol: Nuclear morphology of the cells was analysed with the fluorochromes Hoechst 33342 (λEx max 346 nm; λEm max 460 nm) (Sigma) prepared in phosphate-buffered saline (PBS at 0.1 mg/ml, added to the culture medium at a final concentration of 2 μg/ml and ethidium bromide (EB) (λEx max 540 nm; λEm max 625 nm) (Sigma) prepared in PBS at 100 μg/ml and added to the culture medium at a final concentration of 2 μg/ml (Lizard, 1995). Hundred cells were counted for each sample and percentage of apoptosis was determined.
Control and novel compound-treated cell cultures were washed with PBS and fixed in […] (pH 7.4) for 15 minutes on ice. After washing in PBS, cells were permeabilized in 70% cold (−20° C.) ethanol and transferred to 4° C. for at least 1 hour. After rehydratation in PBS, cells were labeled with 50 μl/well TUNEL reaction mixture (Boehringer Mannheim). Cells were incubated in this solution at 37° C. for 40 minutes, washed in PBS and resuspended in 500 μl PBS containing 5 μg/ml EB and 0.1% RNAse. After 30 minutes of incubation at 4° C., green (FITC-dUTP) and red (EB-DNA) fluorescence of individual cells was measured on a FACscan flow cytometer (Gorczyca, 1993). Negative control (fixed and permeabilized cells incubated with 50 μl label solution per well without terminal transferase, instead of TUNEL reaction mixture) and positive control (fixed and permeabilized cells incubated with DNase I (100 μg/ml) that induces DNA strand breaks) were included in each experimental set-up.
Flow cytometric detection of apoptosis combined with DNA staining can identify apoptotic cells and simultaneously evaluate their position in the cell cycle. This technique was used to provide infomation about the possible cell cycle specific initiation of apoptosis by the tested compounds. If more than 2% of apoptotic cells were detected by the TUNEL method and the absolute number of acquired apoptotic events exceeded 2000, DNA content was simultaneously measured. Within the apoptotic population, analysis and calculation of the different cell cycle phases was carried out by an iterative curve fitting procedure (ModFit LT cell cycle analysis sofware from Verity software house, INC).
Viable, apoptotic, necrotic (=primary necrosis, not following apoptosis) and secondarily necrotic cells (=late apoptotis, evolving to necrosis) were scored differentially after 6, 12, 24, 48 and 72 hours of exposure to novel compounds. For the three products a different apoptosis-inducing pattern could be observed. Apoptosis induction occurs fast after incubation with P23 and P28 but slower after incubation with P27.
Flow cytometric detection of apoptosis and cell cycle analysis: The induction of apoptotic death of KG1 cells by the novel compounds was confirmed using the TUNEL reaction technique (FIG. 5). […] Incubation of KG1 cell line with P27 results in detectable apoptosis after 24 hours. Percentage of apoptotic cells in G0-G1 increases with time, while the number of apoptotic cells in S+G2/M phases decreases. […] After 6 and 12 hours of incubation the apoptotic population seems mainly to evolve from S phase.

HIV-2 = assay: anti-HIV-2 activity in CEM cells; format: cell-based
Protocol: The infected cell cultures were incubated at 37° C. for 5 days in a humidified CO2 incubator. The cytopathicity of the virus was examined by determination of MT-4 cell viability by trypan blue dye staining.

β-adrenergic receptors = assay: isoproterenol-induced intracellular cAMP synthesis in rat C6 glioma; format: cell-based; conditions: cAMP induced by 5 μM (−) isoproterenol, 30 min
Protocol: Rat C6 glioma (ATCC N° CCL107) was cultivated in monolayer in serum-free chemically defined medium containing Ham's F10/minimal essential medium (1:1 vol/vol), 2 mM L-glutamine, 1% (vol/vol) minimal essential medium vitamins (100×), 1% (vol/vol) minimal essential medium nonessential amino acids (100×), 100 U/ml penicillin, 100 μg/ml streptomycin and 30 nM sodium selenite. Incubation was at 37° C. in a humidified atmosphere. Assays were performed in the logaritmic growth phase at a density of 2.5×10^5 cells/cm^2. Intracellular cAMP synthesis was induced by addition of 5 μM (−) isoproterenol. After 30 min incubation at 37° C. the medium was removed and the cellular amount of cAMP determined using the cAMP-enzyme immunoassay kit of Amersham. The IC50 is determined from a dose-response curve in duplicate. The effect of seven purine-analogs was measured after simultaneous addition with isoproterenol.
As P2Y1-like and A2 purinergic receptors, negatively and positively coupled to adenylate cyclase respectively, are present on rat C6 glioma the modulation of the synthesis of cAMP may be due to inhibition of the activation of β-adrenergic receptors by isoproterenol or to activation of purinergic receptors.

SMILES	IC50 (CDC2)	Colony output vs. control cultures without novel compound (KG1)	output of the different types of myeloid colonies (CFU-E, CFU-G and CFU-M) ([5]; scored differentially)	IC50 ([1]; Homo sapiens, MOLT-3)	IC50 ([2]; Homo sapiens, KG-1, 96 h)	IC50 ([4]; Homo sapiens, 336 h)	IC50 ([5]; Homo sapiens, 336 h)	further results
CC[C@H](CCO)Nc1nc(NCc2ccc(O)c(O)c2)c2ncn(C(C)C)c2n1								IC50 (MPF activity): 2.8 µM; IC50 (DNA synthesis): 3.5 µM
CSc1nc(NC(C)c2ccc(O)c(O)c2)c2ncn(C(C)C)c2n1 (stereo not shown) [P16]	> 200 µM	16%	no significant difference					IC50 [1]: 37 ± 7.9 µM; IC50 ([2]; 96 hours of culture): 23 ± 1.2 µM; IC50 [3]: 26.5 ± 2.8 µM; activity on pre-CFU compared with CFU [4]: more active on pre-CFU than on CFU; IC50 [4]: 16 µM; IC50 [5]: > 50 µM
CC(C)n1cnc2c(NC(CO)c3ccccc3)nc(NCCCO)nc21 (racemic) [P27, 2-(3-hydroxypropylamino)-6-[(R,S)-(1-phenyl-2-hydroxyethyl)amino]-9-isopropylpurine]	> 100 µM	8%	significantly lower colony output	14 ± 1.5 µM	7 ± 2 µM	> 25 µM	> 50 µM	cell number after 6 hours of exposure, wash and 7 days in drug-free medium [2]: (some) recovery of cell number; CC50 [3]: 8 ± 0.5 µM; time of incubation after which apoptosis was detected (TUNEL) (KG1 cells; KG1): 24 h; speed of apoptosis induction (microscopic examination) (KG1 cells; KG1, 6-72 hours of exposure, FIG. 4): slower; apoptotic cells in G0-G1 phase versus control cells (KG1 cells; KG1, TUNEL with EB, FIG. 6): significant after 72 hours; CFU-M colony output ([5]; scored differentially): not significantly decreased
CC(C)n1cnc2c(NCc3ccc(O)c(O)c3)nc(NCCCO)nc21								IC50 (MPF activity): 3.6 µM; IC50 (DNA synthesis): 4.2 µM
Nc1nc(NCc2ccccc2)c2ncn(CCOCP(=O)(O)O)c2n1 [PME-derivatives: Benzylamino, reference compound]								HIV-2 CEM IC50 (HIV-2): >20 µg/mL
CC(C)=CCNc1nc(NCCO)nc2c1ncn2C [P3, 2-(2-hydroxyethylamino)-6-(2-isopentenylamino)-9-methylpurine]		47%	no significant difference	≥ 51 µM	≥ 51 µM	> 25 µM	> 50 µM	
CC(C)n1cnc2c(NCc3ccccc3)nc(NCCCN)nc21 [P12, 2-(3-aminopropylamino)-6-benzylamino-9-isopropylpurine]	21 µM		significantly lower colony output	19.3 ± 2.3 µM	16 ± 1.7 µM	20 µM	37 µM	cell number after 6 hours of exposure, wash and 7 days in drug-free medium [2]: (some) recovery of cell number; CC50 [3]: 8 ± 1.2 µM; Effect (β-adrenergic receptors; rat C6 glioma): inhibition; IC50 (β-adrenergic receptors; read-out: I50): 45 ± 5 µM
